From ChEMBL document CHEMBL1914288, “Design and synthesis of biotinylated DHMEQ for direct identification of its target NF-κB components” (Bioorg Med Chem Lett, 2011)
Activity calls are given as the source filed them. The rule behind the calls is not given here.

Tests used:
RAW264.7 [1] = assay: Inhibition of LPS-induced nitric oxide production in mouse RAW264.7 cells at 100 ug/mL preincubated for 1 hr prior LPS stimulation measured after 24 hrs by Griess reaction relative to (-)-DHMEQ; format: functional, cell-based
[2] = target: Transcription factor p65 (Homo sapiens) (UniProt Q04206); assay: Binding affinity to recombinant NF-kappaB transcription factor p65 subunit at 4 equiv mol concentration after 1 hr by MALDI-TOF MS analysis
[3] = tested on: Transcription factor p65 (Homo sapiens), Q04206 [C38S]; assay: Binding affinity to recombinant NF-kappaB transcription factor p65 subunit C38S mutant at 4 equiv mol concentration after 1 hr by MALDI-TOF MS analysis
[4] = Stability of the compound in DMSO for 4 weeks; format: physicochemical; conditions: 672 h
RAW264.7 [5] = assay: Inhibition of LPS-induced nitric oxide production in mouse RAW264.7 cells preincubated for 1 hr prior LPS stimulation measured after 24 hrs by Griess reaction; format: functional, cell-based
RAW264.7 [6] = assay: Cytotoxicity against mouse RAW264.7 cells at 10 ug/mL after 24 hrs by MTT assay; format: cell-based; conditions: raw264.7, 24 h
RAW264.7 [7] = assay: Inhibition of NF-kappaB activation in LPS-stimulated mouse RAW264.7 cells assessed as DNA binding using 32P-labeled oligonucleotide with the high affinity site 5'-AGTTGAGGGGACTTTCCCAGGC-3' at 3 ug/mL after 30 mins by EMSA; format: cell-based
[8] = Stability of the compound under neutral conditions; format: physicochemical

Sequence of Transcription factor p65 (Homo sapiens) (Q04206 whole entry): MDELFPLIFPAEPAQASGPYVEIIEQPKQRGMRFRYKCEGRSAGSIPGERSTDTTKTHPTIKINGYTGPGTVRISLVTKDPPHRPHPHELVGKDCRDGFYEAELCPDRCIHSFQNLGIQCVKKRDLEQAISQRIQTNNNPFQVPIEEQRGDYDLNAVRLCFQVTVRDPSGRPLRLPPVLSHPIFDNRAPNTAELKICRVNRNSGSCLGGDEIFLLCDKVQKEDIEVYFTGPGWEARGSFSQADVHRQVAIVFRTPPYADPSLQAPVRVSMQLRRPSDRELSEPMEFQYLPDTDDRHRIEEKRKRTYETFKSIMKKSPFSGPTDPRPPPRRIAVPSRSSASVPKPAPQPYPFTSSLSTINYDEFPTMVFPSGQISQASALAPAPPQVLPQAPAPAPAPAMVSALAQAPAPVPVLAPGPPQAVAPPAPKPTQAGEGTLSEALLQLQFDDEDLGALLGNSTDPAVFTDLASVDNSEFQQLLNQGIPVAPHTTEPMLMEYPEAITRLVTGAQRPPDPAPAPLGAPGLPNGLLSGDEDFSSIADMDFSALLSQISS
Sequence of Transcription factor p65 (Homo sapiens), Q04206 [C38S] (Q04206 whole entry C38S): as the sequence (Q04206 whole entry) above, with C38S counted along it

## O=C(/C=C/COc1ccccc1C(=O)NC1=CC(=O)[C@H]2O[C@H]2[C@H]1O)NCCOCCOCCNC(=O)CCCC[C@@H]1SC[C@@H]2NC(=O)N[C@@H]21 (mixture of isomers)
RAW264.7 [1]
  inhibition: inactive
[2]
  Activity: Active
[3]
  Activity: inactive
[4]
  Stability: Stable

## C=CCOc1ccccc1C(=O)NC1=CC(=O)[C@H]2O[C@H]2[C@H]1O (racemic)
RAW264.7 [5]
  inhibition: Dose-dependent effect
RAW264.7 [6]
  Activity: Non-toxic
RAW264.7 [7]
  inhibition: Active

## O=C(NC1=CC(=O)[C@H]2O[C@H]2[C@H]1O)c1ccccc1O [DEHYDROXYMETHYLEPOXYQUINOMICIN]
[8]
  Stability: Stable
